Laboratory results from US20260207559A1, “(S)-(3-(1-(1H-IMIDAZOL-4-YL)ETHYL)-2-METHYLPHENYL)METHANOL FOR TREATMENT OF AGITATION” (Alceptor Therapeutics, Inc., priority 2022, published 2026).
Where two headings read alike, the source gives them in different places. Each block holds one compound with its values, some of them ahead of it.

Key:
[1] = Pharmacokinetics after IV or oral dosing in mice
Description: (§1) Groups of rodents were dosed either intravenously or orally in order to determine certain pharmacokinetic properties, including oral bioavailability and half-life. Bioavailability was determined by comparing plasma exposure following IV dosing in a [19% hydroxypropyl beta-cyclodextrin/5% DMSO in saline] formulation with plasma exposure following dosing by oral gavage in a 0.5% methyl cellulose formulation.

in vivo = assay: in vivo
Description: as §1

[2] = Pharmacokinetics in rodents, plasma and brain (species not specified)
Description: as §1

laboratory rodents = tested on: laboratory rodents
Excerpt: The resident-intruder model is an established preclinical model of aggression and agitation, and allows spontaneous and natural expression of both offensive aggression/agitation and defensive behavior in laboratory rodents in a semi natural laboratory setting. […] The latency to attack and the number of attacks are measures of agitation.

Mice = settings: for Inhibition of distance travelled: 30-minute session
Description: Sedation is assessed in the Locomotor Activity (LMA) model. Mice are placed in a novel chamber and their exploratory activity during a 30-minute session is measured as distance traveled.

[3] = tested on: 7 different human CYP enzymes; assay: Metabolism by panel of human recombinant CYP enzymes, % compound remaining; settings: all incubations (7 CYPs); 2 µM; up to 60 min; NADPH
CYP2B6 = CYP2B6 (Homo sapiens, UniProt P20813); settings: recombinant enzyme, 1 h, 2 µM
Chain of CYP2B6 (P20813 whole entry): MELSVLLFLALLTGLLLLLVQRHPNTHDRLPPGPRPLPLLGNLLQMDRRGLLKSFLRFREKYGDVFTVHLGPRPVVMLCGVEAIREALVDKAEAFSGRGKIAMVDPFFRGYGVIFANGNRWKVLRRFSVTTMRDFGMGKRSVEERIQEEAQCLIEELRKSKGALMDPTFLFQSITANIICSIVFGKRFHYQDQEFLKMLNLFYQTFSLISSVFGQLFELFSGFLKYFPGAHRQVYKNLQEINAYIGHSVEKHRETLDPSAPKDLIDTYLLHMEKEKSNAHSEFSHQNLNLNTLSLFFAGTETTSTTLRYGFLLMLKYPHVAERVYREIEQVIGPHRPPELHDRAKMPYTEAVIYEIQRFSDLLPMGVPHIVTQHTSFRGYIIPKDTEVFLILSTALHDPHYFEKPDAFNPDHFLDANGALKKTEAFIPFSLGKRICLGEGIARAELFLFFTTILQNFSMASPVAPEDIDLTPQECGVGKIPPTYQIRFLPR

CYP2C8 = CYP2C8 (Homo sapiens, UniProt P10632); settings: recombinant enzyme, 1 h, 2 µM
Chain of CYP2C8 (P10632 whole entry): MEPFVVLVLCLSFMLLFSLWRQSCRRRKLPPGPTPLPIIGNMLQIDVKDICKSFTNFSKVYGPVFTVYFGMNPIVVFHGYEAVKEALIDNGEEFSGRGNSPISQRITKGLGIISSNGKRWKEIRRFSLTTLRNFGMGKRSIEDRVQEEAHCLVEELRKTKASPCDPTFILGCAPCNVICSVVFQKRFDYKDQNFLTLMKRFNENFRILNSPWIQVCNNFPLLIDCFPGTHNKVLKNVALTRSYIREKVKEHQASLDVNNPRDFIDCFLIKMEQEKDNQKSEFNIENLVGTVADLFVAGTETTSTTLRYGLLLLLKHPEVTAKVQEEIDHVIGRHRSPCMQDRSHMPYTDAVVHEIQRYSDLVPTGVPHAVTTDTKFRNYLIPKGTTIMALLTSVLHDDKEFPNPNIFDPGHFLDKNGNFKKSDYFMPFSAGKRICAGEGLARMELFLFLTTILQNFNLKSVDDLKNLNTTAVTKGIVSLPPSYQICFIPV

CYP2C19 = CYP2C19 (Homo sapiens, UniProt P33261); settings: recombinant enzyme, 1 h, 2 µM
Chain of CYP2C19 (P33261 whole entry): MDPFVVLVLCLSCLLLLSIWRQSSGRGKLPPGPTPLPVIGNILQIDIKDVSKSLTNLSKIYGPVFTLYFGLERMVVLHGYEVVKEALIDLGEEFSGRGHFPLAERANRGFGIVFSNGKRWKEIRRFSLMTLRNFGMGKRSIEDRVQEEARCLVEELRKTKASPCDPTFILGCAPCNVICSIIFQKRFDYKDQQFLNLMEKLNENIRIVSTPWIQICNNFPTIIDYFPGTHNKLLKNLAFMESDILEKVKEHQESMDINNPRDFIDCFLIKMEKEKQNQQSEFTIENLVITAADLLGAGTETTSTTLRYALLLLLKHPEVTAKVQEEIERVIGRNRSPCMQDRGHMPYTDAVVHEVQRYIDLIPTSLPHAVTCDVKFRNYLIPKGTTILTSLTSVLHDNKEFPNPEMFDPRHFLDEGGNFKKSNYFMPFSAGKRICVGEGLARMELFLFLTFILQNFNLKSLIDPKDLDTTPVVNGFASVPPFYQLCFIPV

CYP2D6 = CYP2D6 (Homo sapiens, UniProt P10635); settings: recombinant enzyme, 1 h, 2 µM
Chain of CYP2D6 (P10635 whole entry): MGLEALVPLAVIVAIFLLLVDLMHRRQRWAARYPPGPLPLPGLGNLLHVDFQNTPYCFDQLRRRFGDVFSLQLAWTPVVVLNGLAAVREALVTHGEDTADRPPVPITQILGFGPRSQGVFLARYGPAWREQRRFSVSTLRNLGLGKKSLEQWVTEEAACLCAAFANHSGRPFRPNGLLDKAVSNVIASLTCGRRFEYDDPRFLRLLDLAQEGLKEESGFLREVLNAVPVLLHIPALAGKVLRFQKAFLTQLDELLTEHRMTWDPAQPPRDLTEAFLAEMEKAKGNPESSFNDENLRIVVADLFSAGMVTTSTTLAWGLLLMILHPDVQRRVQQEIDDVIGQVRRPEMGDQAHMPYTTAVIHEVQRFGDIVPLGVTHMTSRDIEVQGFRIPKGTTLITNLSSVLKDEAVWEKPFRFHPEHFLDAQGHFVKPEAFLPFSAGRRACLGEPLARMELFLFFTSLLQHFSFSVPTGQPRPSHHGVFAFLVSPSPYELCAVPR

CYP3A4 = CYP3A4 (Homo sapiens, UniProt P08684); settings: recombinant enzyme, 1 h, 2 µM
Chain of CYP3A4 (P08684 whole entry): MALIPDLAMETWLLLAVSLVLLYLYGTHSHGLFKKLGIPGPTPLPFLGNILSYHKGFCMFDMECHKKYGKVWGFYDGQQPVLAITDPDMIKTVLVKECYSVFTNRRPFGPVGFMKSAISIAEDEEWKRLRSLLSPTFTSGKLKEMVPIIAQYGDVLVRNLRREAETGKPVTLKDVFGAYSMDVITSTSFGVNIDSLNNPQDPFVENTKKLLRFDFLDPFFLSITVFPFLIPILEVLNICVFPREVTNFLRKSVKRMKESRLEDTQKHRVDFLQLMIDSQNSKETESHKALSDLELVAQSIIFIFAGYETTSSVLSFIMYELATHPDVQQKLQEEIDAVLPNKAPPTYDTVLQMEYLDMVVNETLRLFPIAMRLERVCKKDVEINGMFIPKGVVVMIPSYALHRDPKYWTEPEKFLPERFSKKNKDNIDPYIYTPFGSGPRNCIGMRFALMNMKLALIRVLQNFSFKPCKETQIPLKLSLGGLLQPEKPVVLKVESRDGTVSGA

Structure (SMILES): Cc1c(CO)cccc1[C@H](C)c1c[nH]cn1
Time to maximum plasma concentration ([1]; mice): ≤ 10 min
bioavailability ([1]; mouse, plasma, oral): ≤ 51%
bioavailability (in vivo; rat, in vivo): ≤ 34%
Time to maximum plasma concentration (in vivo; rats): ≤ 17 min
Mean decrease of levels in plasma and brain ([2]; between 2 and 8 hrs): < 2 fold
Time to achieve pharmacological concentrations in the brain ([2]; brain): ≤ 30 minutes
half-life ([2]; plasma, po): 4.2 to 7 h
Half-life relative to dexmedetomidine (longer) ([2]; rodents (mice and rats), plasma, oral): 2- to 4 fold
Activity in resident-intruder model (laboratory rodents; 1 mg/kg): minimal activity
Sedation in LMA model (Mice; 1 mg/kg): minimally sedating
Inhibition of distance travelled (Mice; 2 mg/kg): about 25%
Inhibition of distance travelled (Mice; 3 mg/kg): < 50%
Maximum achievable level of activity in the LMA model (Mice; compared with dexmedetomidine): less than the maximum achievable level of activity with dexmedetomidine
Concentration as % of the starting concentration [3]: > 90%

Structure (SMILES): Cc1c(CO)cccc1[C@@H](C)c1c[nH]cn1 [(R)-(3-(1-(1H-imidazol-4-yl)ethyl)-2-methylphenyl)methanol]
bioavailability (in vivo; rat, in vivo, po): 7%

bioavailability (in vivo; rat, in vivo, po): 8.6%
half-life (in vivo; rat, in vivo, po): 2 h
% of compound remaining (CYP2B6): 28%
% of compound remaining (CYP2C8): 84%
% of compound remaining (CYP2C19): 74%
% of compound remaining (CYP2D6): 7%
% of compound remaining (CYP3A4): 89%
Structure (SMILES): Cc1cccc([C@H](C)c2cnc[nH]2)c1C [dexmedetomidine]
Inhibition of attacks (laboratory rodents; 0.2 mg/kg): 20%
